Data from patent US8129369B2, “Antifungal compounds containing benzothiazinone, benzoxazinone or benzoxazolinone and process thereof” (Council of Scientific & Industrial Research;, priority 2008, dated 2012).
≈ marks a conversion by molar mass, not a printed value.

Experiments:
C. krusei ATCC6258 = assay: MIC by broth micro-dilution method, C. krusei ATCC6258; format: cell-based; conditions: for MIC: Pichia kudriavzevii, ATCC6258, MIC = concentration exhibiting 50% inhibition vs positive control
Description: (§1) The compounds of Formula 1 were tested for antifungal activity against various fungi including Candida albicans, Aspergillus niger and Fusarium proliferatum. In vitro evaluation of antifungal activity was performed by determining the minimum inhibitory concentration (MIC) following standard methods (CLSI: Reference method for broth dilution antifungal susceptibility testing of yeasts; Approved standard, second edition M27-A2, 2002; CLSI: Reference method for broth dilution antifungal susceptibility testing of filamentous fungi; Approved standard M38-A, 2002). Anti-fungal susceptibility testing of these anti-fungal compounds was done by broth dilution method using RPMI 1640 medium with MOPS buffer. Known anti-fungal agents like Fluconazole and Amphotericin-B were used as standards. End points were determined after 48 hours visually and by using spectrophotometer wherever necessary.

C. albicans ATCC10231 = assay: MIC by broth micro-dilution method, C. albicans ATCC10231; format: cell-based, Candida albicans; conditions: for MIC: Candida albicans, ATCC10231, MIC = concentration exhibiting 50% inhibition vs positive control
Description: as §1

C. albicans ATCC2091 = assay: MIC by broth micro-dilution method, C. albicans ATCC2091; format: cell-based, Candida albicans; conditions: for MIC: Candida albicans, ATCC2091, MIC = concentration exhibiting 50% inhibition vs positive control
Description: as §1

C. glabrata ATCC90030 = assay: MIC by broth micro-dilution method, C. glabrata ATCC90030; format: cell-based; conditions: for MIC: Nakaseomyces glabratus, ATCC90030, MIC = concentration exhibiting 50% inhibition vs positive control
Description: as §1

C. tropicalis ATCC750 = assay: MIC by broth micro-dilution method, C. tropicalis ATCC750; format: cell-based; conditions: for MIC: Candida tropicalis, ATCC750, MIC = concentration exhibiting 50% inhibition vs positive control
Description: as §1

A. niger ATCC 16404 = assay: MIC by broth macro-dilution method, A. niger ATCC 16404; format: cell-based, Aspergillus niger; conditions: 48 hours; for MIC: Aspergillus niger, ATCC16404, RPMI 1640 with MOPS, MIC = concentration exhibiting 80% inhibition vs positive growth control
Description: as §1
(§2) >16 μg/ml: The novel compounds of formula 1 are generally tested for concentration range from 0.03 μg/ml to the concentration till it was in solution (For e.g.: Back precipitation 128-32 μg/ml, Concentration for assay: 0.03 to 16 μg/ml).

C. albicans ATCC24433 = assay: MIC by broth micro-dilution method, C. albicans ATCC24433; format: cell-based, Candida albicans; conditions: for MIC: Candida albicans, ATCC24433, MIC = concentration exhibiting 50% inhibition vs positive control
Description: as §1

C. albicans ATCC90028 = assay: MIC by broth micro-dilution method, C. albicans ATCC90028; format: cell-based, Candida albicans; conditions: for MIC: Candida albicans, ATCC90028, MIC = concentration exhibiting 50% inhibition vs positive control
Description: as §1

C. albicans ATCC 24433 = assay: MIC by broth macro-dilution method, C. albicans ATCC 24433; format: cell-based, Candida albicans; conditions: 48 hours; for MIC: Candida albicans, ATCC24433, RPMI 1640 with MOPS, MIC = concentration exhibiting 80% inhibition vs positive growth control
Description: as §1, §2

[1] = test system: F. proliferatum ATCC 10052; assay: MIC by broth macro-dilution method, F. proliferatum ATCC 10052; format: cell-based, Fusarium proliferatum; conditions: 48 hours; for MIC: Fusarium proliferatum, ATCC10052, RPMI 1640 with MOPS, MIC = concentration exhibiting 80% inhibition vs positive growth control
Description: as §1, §2

[2] = MIC = concentration exhibiting complete inhibition (Amphotericin B)
[3] = RPMI 1640 with MOPS, MIC = concentration exhibiting complete inhibition (Amphotericin B)

SMILES | MIC (A. niger ATCC 16404) [µg/mL] | MIC (C. albicans ATCC 24433) [µg/mL] | MIC [1] [µg/mL] | also measured
OC(Cn1cncn1)(Cn1cncn1)c1ccc(F)cc1F [Fluconazole, reference compound] | 128 (≈ 418 µM) | 1 (≈ 3.27 µM) | > 128 | MIC (C. krusei ATCC6258): 64 µg/mL (≈ 209 µM); MIC (C. albicans ATCC10231): 1 µg/mL (≈ 3.27 µM); MIC (C. albicans ATCC2091): 4 µg/mL (≈ 13.1 µM); MIC (C. glabrata ATCC90030): 4 µg/mL (≈ 13.1 µM); MIC (C. tropicalis ATCC750): 2 µg/mL (≈ 6.53 µM); MIC (C. albicans ATCC24433): 0.25 µg/mL (≈ 0.816 µM); MIC (C. albicans ATCC90028): 0.5 µg/mL (≈ 1.63 µM)
CC(=O)c1ccc2c(c1)N(CC(O)(Cn1cncn1)c1ccc(Br)cc1)C(=O)CO2 (stereo not shown) [Compound 1p, 6-Acetyl-4-[2-(4-bromophenyl)-2-hydroxy-3-[1,2,4]triazol-1-yl-propyl]-4H-benzo[1,4]oxazin-3-one] | > 32 | 32 (≈ 67.9 µM) | > 32 | –
O=c1oc2ccccc2n1CC(O)(Cn1cncn1)c1ccc(F)cc1F (stereo not shown) [Compound 1q, 3-[2-(2,4-Difluorophenyl)-2-hydroxy-3-[1,2,4]triazol-1-yl-propyl]-3H-benzoxazolin-2-one] | > 128 | 2 (≈ 5.37 µM) | > 128 | –
O=C1COc2ccc([N+](=O)[O-])cc2N1CC(O)(Cn1cncn1)c1ccc(F)cc1F (stereo not shown) [Compound 1l, 4-[2-(2,4-Difluorophenyl)-2-hydroxy-3-[1,2,4]triazol-1-yl-propyl]-6-nitro-4H-benzo[1,4]oxazin-3-one] | > 32 | 32 (≈ 74.2 µM) | > 32 | –
O=C1CSc2ccccc2N1CC(O)(Cn1cncn1)c1ccc(F)cc1F (stereo not shown) [Compound 1a, 4-[2-(2,4-Difluorophenyl)-2-hydroxy-3-[1,2,4]triazol-1-yl-propyl]-4H-benzo[1,4]thiazin-3-one] | > 64 | 0.25 (≈ 0.621 µM) | > 64 | MIC (C. krusei ATCC6258): 4 µg/mL (≈ 9.94 µM); MIC (C. albicans ATCC10231): 0.12 µg/mL (≈ 0.298 µM); MIC (C. albicans ATCC2091): 2 µg/mL (≈ 4.97 µM); MIC (C. glabrata ATCC90030): 0.06 µg/mL (≈ 0.149 µM); MIC (C. tropicalis ATCC750): 0.5 µg/mL (≈ 1.24 µM); MIC (C. albicans ATCC24433): 0.03 µg/mL (≈ 0.0745 µM); MIC (C. albicans ATCC90028): 0.03 µg/mL (≈ 0.0745 µM)
CC(=O)c1ccc2c(c1)N(CC(O)(Cn1cncn1)c1ccc(F)cc1F)C(=O)CO2 (stereo not shown) [Compound 1m, 6-Acetyl-4-[2-(2,4-difluorophenyl)-2-hydroxy-3-[1,2,4]-triazol-1-yl-propyl]-4H-benzo[1,4]oxazin-3-one] | > 64 | > 64 | > 64 | –
Cc1ccc2c(c1)SCC(=O)N2CC(O)(Cn1cncn1)c1ccc(F)cc1F (stereo not shown) [Compound 1e, 4-[2-(2,4-Difluorophenyl)-2-hydroxy-3-[1,2,4]triazol-1-yl-propyl]-7-methyl-4H-benzo[1,4]thiazin-3-one] | > 32 | 2 (≈ 4.8 µM) | > 32 | –
C[C@@H]1[C@H](O)[C@@H](C)/C=C/C=C/C=C/C=C/C=C/C=C/C=C/[C@H](O[C@@H]2O[C@H](C)[C@@H](O)[C@H](N)[C@@H]2O)C[C@@H]2O[C@](O)(C[C@@H](O)C[C@@H](O)[C@H](O)CC[C@@H](O)C[C@@H](O)CC(=O)O[C@H]1C)C[C@H](O)[C@H]2C(=O)O [Amphotericin B, reference compound] | – | – | – | MIC C. krusei ATCC6258 (C. krusei ATCC6258; [2]): 0.5 µg/mL (≈ 0.541 µM); MIC C. albicans ATCC10231 (C. albicans ATCC10231; [2]): 0.5 µg/mL (≈ 0.541 µM); MIC C. albicans ATCC2091 (C. albicans ATCC2091; [2]): 0.5 µg/mL (≈ 0.541 µM); MIC C. glabrata ATCC90030 (C. glabrata ATCC90030; [2]): 0.25 µg/mL (≈ 0.271 µM); MIC C. tropicalis ATCC750 (C. tropicalis ATCC750; [2]): 0.5 µg/mL (≈ 0.541 µM); MIC A. niger ATCC 16404 (A. niger ATCC 16404; [3]): 1 µg/mL (≈ 1.08 µM); MIC C. albicans ATCC24433 (C. albicans ATCC24433; [2]): 0.25 µg/mL (≈ 0.271 µM); MIC C. albicans ATCC90028 (C. albicans ATCC90028; [2]): 0.5 µg/mL (≈ 0.541 µM); MIC C. albicans ATCC24433 (C. albicans ATCC 24433; [3]): 0.25 µg/mL (≈ 0.271 µM); MIC F. proliferatum ATCC 10052 [1, 3]: 2 µg/mL (≈ 2.16 µM)
O=C1COc2ccc(Br)cc2N1CC(O)(Cn1cncn1)c1ccc(F)cc1F (stereo not shown) [Compound 1k, 6-Bromo-4-[2-(2,4-difluorophenyl)-2-hydroxy-3-[1,2,4]triazol-1-yl-propyl]-4H-benzo[1,4]oxazin-3-one] | > 32 | 16 (≈ 34.4 µM) | > 32 | –
COc1ccc2c(c1)SCC(=O)N2CC(O)(Cn1cncn1)c1ccc(Br)cc1 (stereo not shown) [Compound 1g, 4-[2-(4-Bromophenyl)-2-hydroxy-3-[1,2,4]triazol-1-yl-propyl]-7-methoxy-4H-benzo[1,4]thiazin-3-one] | > 16 | 2 (≈ 4.21 µM) | > 16 | –
O=C1COc2ccccc2N1CC(O)(Cn1cncn1)c1ccc(F)cc1F (stereo not shown) [Compound 1i, 4-[2-(2,4-Difluorophenyl)-2-hydroxy-3-[1,2,4]-triazol-1-yl-propyl]-4H-benzo[1,4]oxazin-3-one] | > 64 | 0.5 (≈ 1.29 µM) | > 64 | MIC (C. krusei ATCC6258): 16 µg/mL (≈ 41.4 µM); MIC (C. albicans ATCC10231): 0.5 µg/mL (≈ 1.29 µM); MIC (C. albicans ATCC2091): 4 µg/mL (≈ 10.4 µM); MIC (C. glabrata ATCC90030): 0.25 µg/mL (≈ 0.647 µM); MIC (C. tropicalis ATCC750): 2 µg/mL (≈ 5.18 µM); MIC (C. albicans ATCC24433): 0.12 µg/mL (≈ 0.311 µM); MIC (C. albicans ATCC90028): 0.12 µg/mL (≈ 0.311 µM)
O=C1COc2ccc(Cl)cc2N1CC(O)(Cn1cncn1)c1ccc(Br)cc1 (stereo not shown) [Compound 1n, 4-[2-(4-Bromophenyl)-2-hydroxy-3-[1,2,4]-triazol-1-yl-propyl]-6-chloro-4H-benzo[1,4]oxazin-3-one] | > 16 | 4 (≈ 8.63 µM) | > 16 | –
O=C1CSc2cc(Cl)ccc2N1CC(O)(Cn1cncn1)c1ccc(F)cc1 (stereo not shown) [Compound 1f, 7-Chloro-4-[2-(4-fluorophenyl)-2-hydroxy-3-[1,2,4]-triazol-1-yl-propyl]-4H-benzo[1,4]thiazin-3-one] | > 16 | 2 (≈ 4.77 µM) | > 16 | –
COc1ccc2c(c1)SCC(=O)N2CC(O)(Cn1cncn1)c1ccc(F)cc1 (stereo not shown) [Compound 1h, 4-[2-(4-Fluorophenyl)-2-hydroxy-3-[1,2,4]triazol-1-yl-propyl]-7-methoxy-4H-benzo[1,4]thiazin-3-one] | > 16 | 8 (≈ 19.3 µM) | > 16 | –
O=C1COc2ccc(Cl)cc2N1CC(O)(Cn1cncn1)c1ccc(F)cc1F (stereo not shown) [Compound 1j, 6-Chloro-4-[2-(2,4-difluorophenyl)-2-hydroxy-3-[1,2,4]triazol-1-yl-propyl]-4H-benzo[1,4]oxazin-3-one] | > 32 | 8 (≈ 19 µM) | > 32 | –
O=C1CSc2cc(Br)ccc2N1CC(O)(Cn1cncn1)c1ccc(F)cc1F (stereo not shown) [Compound 1c, 7-Bromo-4-[2-(2,4-difluorophenyl)-2-hydroxy-3-[1,2,4]triazol-1-yl-propyl]-4H-benzo[1,4]thiazin-3-one] | > 16 | 1 (≈ 2.08 µM) | > 16 | –
O=C1CSc2cc(Cl)ccc2N1CC(O)(Cn1cncn1)c1ccc(F)cc1F (stereo not shown) [Compound 1b, 7-Chloro-4-[2-(2,4-difluorophenyl)-2-hydroxy-3-[1,2,4]-triazol-1-yl-propyl]-4H-benzo[1,4]thiazin-3-one] | > 16 | 1 (≈ 2.29 µM) | > 16 | –
COc1ccc2c(c1)SCC(=O)N2CC(O)(Cn1cncn1)c1ccc(F)cc1F (stereo not shown) [Compound 1d, 4-[2-(2,4-Difluorophenyl)-2-hydroxy-3-[1,2,4]triazol-1-yl-propyl]-7-methoxy-4H-benzo[1,4]thiazin-3-one] | > 32 | 4 (≈ 9.25 µM) | > 32 | –
